Measurements: patent US20250208141A1, “FLUORESCENT PROBE FOR LABELING M1 MACROPHAGES, AND M1 MACROPHAGE MONITORING SYSTEM USING SAME” (INSTITUTE FOR BASIC SCIENCE, priority 2022, published 2025)

Key:
GLUT1 = target: T1, GLUT1 (Mus musculus, UniProt P17809); test: GLUT1 blocking with STF-31, then CDr17 fluorescence in M1 macrophages; type: cell-based; conditions: M1 macrophage of RAW264.7; 1 μM CDr17 for 30 minutes
T1 construct: endogenous in cells; host or cells: M1 macrophages of RAW264.7 cells
T1 sequence (P17809 1-492): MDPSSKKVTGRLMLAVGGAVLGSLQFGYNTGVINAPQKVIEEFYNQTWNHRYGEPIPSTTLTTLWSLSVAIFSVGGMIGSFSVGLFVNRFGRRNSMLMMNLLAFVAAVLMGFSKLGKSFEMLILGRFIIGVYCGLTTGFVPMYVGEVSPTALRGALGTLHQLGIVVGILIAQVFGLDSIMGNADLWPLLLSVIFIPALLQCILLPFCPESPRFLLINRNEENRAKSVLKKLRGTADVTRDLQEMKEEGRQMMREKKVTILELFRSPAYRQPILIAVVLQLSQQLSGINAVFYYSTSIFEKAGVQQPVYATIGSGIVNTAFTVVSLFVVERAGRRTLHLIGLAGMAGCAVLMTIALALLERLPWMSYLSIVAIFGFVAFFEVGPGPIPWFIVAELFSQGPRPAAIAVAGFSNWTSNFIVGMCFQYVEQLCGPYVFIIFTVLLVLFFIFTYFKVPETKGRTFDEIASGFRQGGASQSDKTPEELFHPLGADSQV
Description: Next, the function of GLUT1 was blocked using STF-3121 which is a selective inhibitor of GLUT1 in the M1 macrophage of RAW264.7, and then a treatment was performed with 1 μM CDr17 for 30 minutes to monitor the inhibition effect.

[1] = tested on: THP-1 M0, M1, M2 macrophages; test: M1 macrophage selectivity by comparison with 2-NBDG in THP-1 macrophages; type: cell-based, human
Text: In order to compare the selectivity of CDr17 for M1 macrophages, 2-NBDG which is a generally used fluorescent probe was applied to THP-1 which is a macrophage cell line of human origin and tested.

GLUTs = test: Glucose (D/L-glucose) competition test with CDr17 in M1 macrophages; type: cell-based, mouse; conditions: D/L-glucose 0, 20, 60 mM; CDr17 1 μM; M1 macrophages from RAW264.7
Description: In order to analyze a mechanism for selectivity of the compounds (probes) according to the examples, test was performed as follows, using the CDr17 compound of Example 8. First, in order to analyze whether the selectivity of CDr17 is related to GLUTs in cells, a glucose competition test was performed by the following method. As an M1 macrophage medium having no glucose differentiated in RAW264.7 cells, a medium comprising 10% Heat-Inactivated Fetal Bovine Serum (Gibco) and 1% penicillin streptomycin (WELGENE) comprising D/L-glucose at various concentrations (0 (Cont.), 20, 60 mM) were cultured for 5 minutes, and CDr17 (1 μM) was added. The nucleus was stained with Hoechst33342 (1 μg/mL), and the medium was replaced with a fresh medium after 30 minutes. Fluorescence microscopic imaging was performed with Operetta High Throughput screening with a 40× objective lens.

GLUT = GLUT inhibition test (CDr17 absorption) with cytochalasin B19; type: cell-based, mouse; conditions: inhibitor 0, 0.03, 0.1, 0.3 μM, 30 minutes, M1 macrophage
Description: Next, a GLUT inhibition test was performed using cytochalasin B19 which is a general GLUT inhibitor. An inhibitor at various concentrations (0, 0.03, 0.1, 0.3 μM) was cultured for 30 minutes with the M1 macrophage, cells were treated with CDr17, and the fluorescence intensity was analyzed (FIG. 3).

## CC(C)(C)c1ccc(S(=O)(=O)NCc2ccc(C(=O)Nc3cccnc3)cc2)cc1 [STF-31]
GLUT1
  entry of CDr17 into M1 cells: significantly decreased dependently on the dose

## O=[N+]([O-])c1ccc(N[C@H]2C(O)O[C@H](CO)[C@@H](O)[C@@H]2O)c2nonc12 (stereo partly drawn) [Example 2-NBDG, 2-NBDG]
[1]; THP-1, CDr17 0.5 μM, 2-NBDG 1, 5, 10, 50, 100 μM
  ability to distinguish M1 macrophage from M0 and M2 by fluorescence intensity: M1 and M2 macrophages were not able to be clearly distinguished at any concentration
[1]; THP-1 macrophages
  concentration needed for observation of fluorescence intensity: 100 µM

## O=C[C@@H](O)[C@H](O)[C@@H](O)[C@@H](O)CO [L-glucose]
GLUTs
  effect on CDr17 fluorescence intensity / absorption by the M1 macrophage: did not affect absorption of CDr17

## cytochalasin B19
GLUT
  effect on absorption of CDr17 through GLUT: blocked dose-dependently absorption of CDr17 through GLUT

## O=C[C@H](O)[C@@H](O)[C@H](O)[C@H](O)CO [D-glucose]
GLUTs
  effect on CDr17 fluorescence intensity / absorption by the M1 macrophage: decreased dose-dependently
